Here are results for 1 molecule from paper PMC7782499, “Progerinin, an optimized progerin-lamin A binding inhibitor, ameliorates premature senescence phenotypes of Hutchinson-Gilford progeria syndrome” (Communications Biology, 2021).

Values joined by “and” are separate entries in the source; they are usually repeats but may differ in a detail not shown here. Identical values can stand only once.

The target of one data set is CYP2C19 (Homo sapiens, UniProt P33261). The data set is described as follows: CYP inhibition, CYP2C19. The class given is in vitro ADME. The procedure:
For PK analysis, 5 mg/kg of JH4 in 10% DMSO, 5% […] solution were intravenously injected and 10 mg/kg of JH4 in 10% NMP and 90% PEG400 solution were orally delivered. At pre-set time-points, blood concentration of JH4 was determined by LC-MS/MS analysis[22],[23]. Other chemicals were also tested using similar protocol. In vitro ADME studies (plasma protein binding, CYP inhibition, microsomal stability, plasma stability, and hERG inhibition) were performed by New Drug Development Center (Daegu, Korea) using standard protocols[24],[25].

Another data set deals with Lmna G609G/+ mouse. The data set is described as follows: Heart rate (electrocardiographic analysis). The settings on record: LMNA G609G/+ mice, SLC-D011 for 6 weeks. It is filed as in vivo. An excerpt:
Fig. 4 Oral administration of SLC-D011 suppresses premature aging features. A Gross morphology of SLC-D011-treated (D011) mice at 8 weeks old. Body size of treated mouse was apparently larger than that of the untreated control (Con) mouse. B Oral administration of SLC-D011 increases body weights of Lmna^G609G/G609G mice. Compared with untreated control group, body weight of treated mouse was increased by ~35%, *p < 0.05. C Oral administration of SLC-D011 extends the life span of Lmna^G609G/G609G mouse. SLC-D011 in monoolein-based solution was treated by oral gavage (50 mg/kg, daily) from 5 weeks old. […] E Grip test of Lmna^G609G/+ mice at 41-week-old was performed after administration of SLC-D011 for 6 weeks. The test was repeated 10 times for each mouse (n > 4), **p < 0.001. Data are presented as mean ± SD. […] H Anti-aging effects of single treatment of SLC-D011 or lonafarnib were measured in HGPS patients-derived cells (AG11513, AG03199, AG11498, and AG03198, Coriell Cell Repositories). […] No unit is printed with them; the x axis reads Age (weeks). / Panel C: Ave=16.8 / Max=18 are printed beside the dashed curve of the control (Con). […]
For analysis of heart rate, mice were anesthetized with 2.5% isoflurane and monitored using LOGIQ E9 (GE Healthcare). […] Each estimate given corresponded to total reads measured ten times, excluding the minimum and the maximum from each group of animals.

Chain of CYP2C19 (P33261 whole entry): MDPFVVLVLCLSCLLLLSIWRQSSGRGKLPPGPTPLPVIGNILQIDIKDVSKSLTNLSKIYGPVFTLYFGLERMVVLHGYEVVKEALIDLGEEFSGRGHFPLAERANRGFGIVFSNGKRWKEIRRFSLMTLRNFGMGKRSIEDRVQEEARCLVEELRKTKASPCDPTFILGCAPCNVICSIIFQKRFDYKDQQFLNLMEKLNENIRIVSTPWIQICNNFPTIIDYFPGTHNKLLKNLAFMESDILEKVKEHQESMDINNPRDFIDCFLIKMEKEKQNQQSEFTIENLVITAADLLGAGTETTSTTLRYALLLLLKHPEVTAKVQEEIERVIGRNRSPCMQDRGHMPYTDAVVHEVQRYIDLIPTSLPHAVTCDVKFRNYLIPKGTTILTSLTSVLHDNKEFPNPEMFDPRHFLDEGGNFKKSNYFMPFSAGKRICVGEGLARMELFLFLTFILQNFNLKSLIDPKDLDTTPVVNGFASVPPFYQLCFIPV

On CYP2C19, `CC1(C)Oc2cc3oc(=O)ccc3cc2C[C@@H]1OC/C=C/c1ccccc1` [SLC-D011] registered a CYP inhibition of 28.8. In addition, the Heart rate in the data set on Lmna G609G/+ mouse is 462 bmp and 447 bmp and 432 bmp and 454 bmp.
